Experimental data: PubChem BioAssay AID1902 (Broad Institute, 2009)
Calls of active or inactive are those of the source.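 The calls were made as follows: active = EC50 no more than a set limit of log units above the highest dose; inactive = the rest.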

target: S. pyogenes SKKanGAS, kanamycin survival, BacTiterGlo, 6 h; assay: S. pyogenes SKKanGAS kanamycin growth inhibitors – SKKanGAS strain, luminescence, dose confirmation, streptokinase promoter inhibitor project, dose response (AID 1902);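 also: lower survival reflects blocked streptokinase promoter driving kanamycin resistance gene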

Compound | EC50
Cc1ccc(-c2nn(-c3ccccc3)cc2/C=N/O)cc1 | 6.28 µM
c1ccc(CN2CCN(c3nc4ccccc4c4ccccc34)CC2)cc1 | 5.26 µM
CCCCCCCCCCCC(=O)c1c(O)cccc1O | 1.58 µM
O=C(Nc1cccnc1)Nc1cc(Cl)cc(Cl)c1 | 8.7 µM
COc1ccccc1CCNC(=O)C(=O)c1cn(CC(=O)N2CCCC2)c2ccccc12 | > 15 µM (inactive)
Cc1ccc(/C=C2/Sc3ccc(C(=O)N4CCC5(CC4)OCCO5)cc3NC2=O)cc1 | 5.88 µM
N#Cc1c(NC(=S)NC(=O)C2CCCC2)sc2c1CCCCC2 | 6.33 µM
CC(NS(=O)(=O)OCC(Cl)(Cl)Cl)c1ccc(C(C)(C)C)cc1 (configuration not stated) | 4.64 µM
Nc1nc(NCCOCCO)nc(N2CCCCCC2)c1[N+](=O)[O-] | 5.78 µM
c1ccc(N2CCN(c3nc(-c4ccccn4)nc4ccccc34)CC2)cc1 | < 0.06 µM
Cc1ccc(C(C)C)cc1OCC(=O)Nc1ccccc1N1CCCC1 | 3.56 µM
COc1ccccc1C(=O)Nc1nnc(SCC(=O)NCC2CCCO2)s1 (configuration not stated) | > 15 µM (inactive)
CC(C)N=c1cc2n(-c3ccc(Cl)cc3)c3ccccc3nc-2cc1Nc1ccc(Cl)cc1 | 1.24 µM
CN1CCN(c2cc3c(cc2F)c(=O)c(C(=O)O)cn3CCF)CC1 | 4.37 µM
CCCn1c(=O)c(C(=O)Nc2ncccc2C)c(O)c2ccccc21 | 5.16 µM
Cc1ccccc1NC1=C/C(=N\S(=O)(=O)c2ccc(C(=O)O)cc2)c2ccccc2C1=O | 1.9 µM
O=C(NC(=S)NNC(=O)[C@H]1C[C@@H]1c1ccccc1)c1cccc(F)c1 | 0.756 µM
O=C(NC(=S)N1CCN(C(c2ccccc2)c2ccccc2)CC1)c1ccc(S(=O)(=O)N2CCOCC2)cc1 | 2.56 µM
COc1ccc(/C=C2/S/C(=N/N=C3\CC4CCC3(C)C4(C)C)NC2=O)cc1 (configuration not stated) | 10.7 µM
O=C(CP(=O)(c1ccccc1)c1ccccc1)N/N=C/c1cc(Br)cc(Br)c1O | 0.804 µM
O=C1c2ccccc2CC1(Cc1ccccc1)Cc1ccccc1 | 4.35 µM
CCCc1nc2ccccc2c(=O)n1NC(=O)c1c(O)c2cccc3c2n(c1=O)CCC3 | 2.6 µM

Compound | EC50
COc1ccccc1OCC(=O)NNC(=S)NC(=O)c1ccco1 | 2.39 µM
CCc1ccc(N=C2NC(=O)/C(=C/c3cc(OC)c(O)c(OC)c3)S2)cc1 | 4.44 µM
CSc1cccc(-c2nnc(NC(=O)c3cccc(N4C(=O)CCC4=O)c3)o2)c1 | 2.04 µM
O=C(NNC(=S)NC(=O)c1cccnc1)c1ccc(Cl)cc1 | 2.64 µM
Cc1c(CCC(=O)O)c(=O)oc2cc3occ(-c4ccc(Cl)cc4)c3cc12 | 3.46 µM
CCOc1ccccc1NC(=O)c1nc(S(=O)(=O)Cc2ccccc2)ncc1Cl | 8.85 µM
COc1ccccc1C(NC(C)=O)c1cc(Cl)c2cccnc2c1O (configuration not stated) | 2.91 µM
O=C(Nc1ccccc1)Nc1cc(OCC(F)(F)F)cc(OCC(F)(F)F)c1 | 4.78 µM
Cc1ccc(/C=N/NC(=O)Cc2ccc(Cl)cc2)c(O)c1 | 0.866 µM
O=c1[nH]c2ccc(Cl)cc2c(-c2ccccc2)c1SC(=S)N1CCOCC1 | 0.697 µM
COc1c(N2CCN(C(=S)NC3CC4CCC3C4)C(C)C2)c(F)cc2c(=O)c(C(=O)O)cn(C3CC3)c12 (configuration not stated) | 3.09 µM
O=c1[nH]c(NNC(=S)NCc2ccccc2)nc2c1C1(CCCCC1)Cc1ccccc1-2 | 1.33 µM
COc1cnc(-c2ccccn2)nc1Oc1ccccc1Cl | 14.4 µM
O=C(Oc1c(Cl)cc(Cl)c2cccnc12)c1cccs1 | 1.08 µM
O=C(Nc1ccccc1C(=O)Nc1nnc(C(F)(F)F)s1)c1ccccc1Cl | 1.34 µM
CCSc1n[nH]c2nc3c(c(=O)n12)C1(CCCC1)Cc1ccccc1-3 | 3.75 µM
COc1ccc(NC(=S)NC(NC(=O)c2ccc(Cl)cc2Cl)C(Cl)(Cl)Cl)c([N+](=O)[O-])c1 (configuration not stated) | 1.15 µM
CCCOc1ccc(C(=O)NNC(=S)NC(=O)c2ccccc2[N+](=O)[O-])cc1 | 1.8 µM
Cc1cc(COC(=O)C2N3C(=O)[C@@H](NC(=O)COc4ccccc4)[C@H]3SC2(C)C)on1 (some centres not stated) | 0.119 µM
CC12CCC(C(=O)NNC(=O)c3ccccc3)(OC1=O)C2(C)C (configuration not stated) | > 15 µM (inactive)
Cc1nn(C(C)C(=O)NC2C(=O)N3C(C(=O)O)=C(CSc4nnnn4C)CSC23)cc1Cl (configuration not stated) | < 0.06 µM
Cc1cccc(NC2=Nc3ccccc3N3C2=Nc2c(c(C)nn2-c2ccccc2)C3c2ccc(O)c(O)c2)c1 (configuration not stated) | 4.54 µM

Compound | EC50
COc1cc(/C=C/C(=O)c2ccc([N+](=O)[O-])o2)ccc1O | 2.98 µM
O=C(NC(=S)N1CCN(c2nc(-c3ccccc3)cs2)CC1)c1cncc(Br)c1 | 1.2 µM
Cc1cccc(/C=C/C(=O)c2ccc([N+](=O)[O-])o2)c1 | 4.81 µM
Cc1ccc(Oc2ccc3c(c2)C(=O)N(c2cccc4cccnc24)C3=O)cc1 | 2.91 µM
N#C/C(=C(/O)CN1CCN(c2ccccc2F)CC1)c1nc(-c2ccccc2)cs1 | 12.2 µM
Cn1c(Sc2ccccc2Cl)c(C=O)c2ccccc21 | 5.92 µM
S=C(NCCSCc1ccc(Cl)cc1Cl)Nc1ccccc1 | 7.32 µM
O=C(NCc1ccco1)c1cc2ccc(O)cc2oc1=O | 5.85 µM
CN(C)c1nc(SCc2ccccc2Cl)nc2c1CCCC2 | 6.27 µM
CC(C)Sc1cc(N2CCCC2)nc(-c2ccc(F)cc2)n1 | 5.9 µM
C[C@H](CCC(=O)NCC(=O)O)[C@H]1CC[C@H]2C3[C@H](O)C[C@@H]4C[C@H](O)CC[C@]4(C)[C@H]3C[C@H](O)[C@]12C (some centres not stated) | > 15 µM (inactive)
CC(C)=CCC/C(C)=C/Cc1c(O)ccc(C(=O)/C=C/c2ccc(O)cc2)c1O | 1.02 µM
O=C(Nc1ccc(Cl)c(Cl)c1)Nc1nccs1 | 8.79 µM
O=[N+]([O-])c1ccc(O)c(/C=N/Nc2nc3ccccc3[nH]2)c1 | 0.589 µM
Cc1ccc(CN(C(=O)c2ccco2)C2CCS(=O)(=O)C2)cc1 (configuration not stated) | > 15 µM (inactive)
CCN(CC)c1ccc(C(=O)OCc2cc(=O)oc3cc(O)ccc23)cc1 | 15.3 µM
CN(C)Cc1nc2ccccc2c(=O)n1Cc1nc(-c2cc3ccccc3o2)cs1 | 1.82 µM
CCCCCCN1N=C(C)C(C(=O)c2ccc(Cl)cc2)C1=O (configuration not stated) | 1.51 µM
Cc1ccc(-n2cc3c(-c4cccc(Br)c4)nnc(C)c3n2)cc1 | 7.09 µM
Cc1cccc2sc(NC(=O)c3ccc(NS(=O)(=O)c4cccs4)cc3)nc12 | 1.27 µM
O=C(N/N=C/c1cc(O)ccc1Br)c1cccnc1 | 2.88 µM
N#C/C(=C(/O)c1cc2ccccc2o1)c1nc2ccccc2s1 | 9.58 µM

Compound | EC50
CCCC(=O)Nc1ccc2c(c1)nc(CCNC(=O)c1ccccc1)n2C | > 15 µM (inactive)
CSCC[C@H](NC(=O)c1nn(C)c(=O)c2ccccc12)c1nc2ccccc2[nH]1 | 2.85 µM
CCCCn1c(NS(=O)(=O)c2ccccc2)c(S(=O)(=O)c2ccc(C)cc2)c2nc3ccccc3nc21 | 3.43 µM
NC1CCN(c2nc3c(cc2F)c(=O)c(C(=O)O)cn3-c2ccc(F)cc2F)C1 (configuration not stated) | 0.296 µM
Cc1ccc(Cn2nnc3c(=O)[nH]c(C4CCN(S(=O)(=O)c5cc(C)ccc5C)CC4)nc32)cc1 | 6.26 µM
O=S(=O)(Nc1ccc(-c2csc(-c3ccccc3)n2)cc1)c1ccc(F)cc1 | 1.92 µM
CC1C(=O)C(C)C(c2cc(Cl)ccc2O)NC1c1cc(Cl)ccc1O (configuration not stated) | 2.32 µM
Cc1cccc(C(=O)NC(C(=O)Nc2nc(-c3ccccn3)cs2)C(C)C)c1 (configuration not stated) | 5.46 µM
COc1ccc(-c2noc(-c3ccccc3-c3ccccc3)n2)cc1 | 8.18 µM
Cc1cc(C(=O)N/N=C/c2ccc([N+](=O)[O-])s2)n[nH]1 | 2.39 µM
O=C(N/N=C/c1c(O)n(C2CCCCC2)c(=S)[nH]c1=O)c1ccccc1O | 0.601 µM
CCc1cccc2sc(N3CCN(C(=O)c4ccc([N+](=O)[O-])o4)CC3)nc12 | 4.73 µM
Cc1cccc(C)c1NC(=S)N/N=C/c1ccc(OCCC(C)C)cc1 | 2.49 µM
Cc1c(C(=O)Nc2nonc2-c2ccc(F)cc2)oc2ccc(F)cc12 | 4.06 µM
CC(C)C1C(c2ccccc2)N(C)C(c2ccccc2)CC1(O)c1ccccc1 (configuration not stated) | 2.48 µM
COc1ccccc1Oc1cn[nH]c1-c1ccc(OCC(=O)NN)cc1O | > 15 µM (inactive)
O=[N+]([O-])c1ccc(Cl)cc1Sc1nc2ccccc2o1 | 1.67 µM
CCN1C(=O)/C(=C\c2ccc(-c3ccc([N+](=O)[O-])cc3OC)o2)SC1=Nc1cccc(C(=O)O)c1 | 3.57 µM
CC(=O)Nc1nc(NC(=O)/C=C/c2ccccc2)n(-c2ccccc2)n1 | 1.74 µM
CC(C)c1ccc(-c2nc(N3CCCC3)nc3n[nH]c(N)c23)cc1 | 8.74 µM
O=c1c2ccccc2nc(COc2ccccc2)n1/N=C/c1cc([N+](=O)[O-])ccc1O | 1.73 µM
Oc1cccc2ccc(/C=C/c3c(F)cccc3Cl)nc12 | 0.43 µM

Compound | EC50
CCCCNc1c(-c2ccc(OC)c(SC3CCCCC3)c2)nc2cc(C)ccn12 | 3.89 µM
Fc1ccccc1N=C1NN=C(c2ccccc2)CS1 | 8.17 µM
CCn1c(=S)sc2c(=O)[nH]c(SCC(=O)Nc3cc(OC)ccc3OC)nc21 | 6.58 µM
O=[N+]([O-])c1c(Nc2cccc(O)c2)cc(Cl)c2nonc12 | 6.5 µM
Cc1nnc(SCC2=C(C(=O)O)N3C(=O)C(NC(=O)Cn4nc(C)c(Cl)c4C)C3SC2)s1 (configuration not stated) | < 0.06 µM
Cc1cc(Br)cc(/C=N/NC(=O)c2ccc3c(c2)OCO3)c1O | 1.9 µM
COc1cccc(C(=O)Oc2ccc(/C=N/Nc3ccc(C(=O)O)cc3)cc2OC)c1 | 6.23 µM
O=C(O)c1ccc(N/N=C/c2ccc(-c3ccc(Br)cc3)o2)cc1 | 2.36 µM
COc1ccc(N2CC(C(=O)Nc3nnc(SCc4cccnc4)s3)CC2=O)cc1 (configuration not stated) | > 15 µM (inactive)
CC1CCc2c(sc3nc(C(C)(C)C)nc(N4CCN(C(=O)CCl)CC4)c23)C1 (configuration not stated) | 3.6 µM
O=C(NCc1ccc2c(c1)OCO2)Nc1ccc(F)cc1 | > 15 µM (inactive)
Cc1ccc(-c2cc(C(=O)N3CCN(c4ccccc4O)CC3)c3ccccc3n2)cc1 | 8.84 µM
CC(C)c1ccc2[nH]c3c(c2c1)CCC/C3=N\NC(=O)c1ccncc1 | 2.43 µM
Cc1sc2ncnc(N3CCC(C(=O)NCC(=O)Nc4ccc(F)c(F)c4)CC3)c2c1C | 5.07 µM
CC1CC(C)CN(Cc2nc(N)nc(Nc3ccc4ccccc4c3)n2)C1 (configuration not stated) | 1.41 µM
Cc1[nH]n(-c2ccccc2)c(=O)c1/C=N/NC(=O)c1ccccc1F | 1.12 µM
CC(=O)NC(=S)Nc1ccc(NC(=S)NC(=O)/C=C/c2ccco2)cc1 | 8.72 µM
COc1ccc2nc(N3C(=O)CNC3=S)sc2c1 | 2.89 µM
CN1CCN(C2=Cc3ccc(Cl)cc3Sc3ccc(F)cc32)CC1 | 4.61 µM
